We go through ten compounds from patent US12295936B2, “Immunomodulating urea azalides” (Zoetis Services LLC, priority 2020, dated 2025).

For assay [1], the system named is TNF-α. Nature of the assay: LPS-stimulated whole bovine blood assay, MSD cytokine detection. Format: cell-based. The conditions noted are these: LPS-stimulated bovine whole blood, read-out: TNF-α (IC50 μM). How it is done: Therefore, a fresh whole bovine blood assay was developed with LPS as a stimulant (TLR-4 agonist) and with IL-1β and TNF-α as the read-out. Compounds of the invention were evaluated against a positive control for their ability to inhibit LPS-induced IL-1β and TNF-α as an overall evaluation of relative potency and modulation of target pathways (Table 6).
In the bovine whole blood in vitro screening assay the inhibition of TNFα as induced by stimulation by lipopolysaccharide (LPS) and as measured by half the maximal inhibitory concentration (IC50) is recognized as the primary biomarker of immunomodulation potency upon pretreatment with the compounds of the invention. IL-1β is a mediator of the inflammation response and is involved in a number of cellular activities including proliferation, differentiation and apoptosis. IL-1β is also released upon cellular stress or cytotoxicity or upon TLR stimulation. In the bovine whole blood assay the stimulation of IL-1β release upon increasing concentration of test compound is seen as a potential cellular toxicity signal as induced by the test compound. In order to estimate a therapeutic index from the in vitro assay a differential between the TNFα IC50 (immunomodulation potency) versus the perceived cellular toxicity concentration (IL-1β release or overstimulation) was utilized.

The subject of assay [2] is IL-1β. Described as above. It is filed as cell-based. The conditions noted are these: overstimulation of IL-1β, LPS-stimulated bovine whole blood. How it is done: The effect of multiple cytokines was not easily quantified using single cell types. Therefore, a fresh whole bovine blood assay was developed with LPS as a stimulant (TLR-4 agonist) and with IL-1β and TNF-α as the read-out. Compounds of the invention were evaluated against a positive control for their ability to inhibit LPS-induced IL-1β and TNF-α as an overall evaluation of relative potency and modulation of target pathways (Table 6).
(§1) In order to correlate RNA sequencing data to cytokine changes the whole blood assay was utilized. […] The enhancement result represents an overall stimulation of cytokine levels due to cellular stress or potential toxicity with increasing concentrations of the compound, representing a typical bell shape response curve for immunomodulatory activity.
In the bovine whole blood in vitro screening assay the inhibition of TNFα as induced by stimulation by lipopolysaccharide (LPS) and as measured by half the maximal inhibitory concentration (IC50) is recognized as the primary biomarker of immunomodulation potency upon pretreatment with the compounds of the invention.

The test system of assay [3] is IL-6. The assay is described as above. It is filed as cell-based. The conditions noted are these: LPS-stimulated bovine whole blood, read-out: IL-6 (IC50 μM).
Source text: as §1

Assay [4] deals with BRD pathogens, M. haemolytica and P. multocida. Nature of the assay: MIC screening panel of BRD pathogens (antibacterial / non-antibacterial).

Like-named read-outs stand apart in the source and are kept apart here.

With “1-((2S,3R,4S,6R)-2-(((2R,3S,4R,5R,8R,10R,11R,12S,13S,14R)-13-(((2R,4R,5S,6S)-5-(ethoxymethyl)-5-hydroxy-4-methoxy-4,6-dimethyltetrahydro-2H-pyran-2-yl)oxy)-2-ethyl-3,4,10-trihydroxy-3,5,8,10,12,14-hexamethyl-15-oxo-1-oxa-6-azacyclopentadecan-11-yl)oxy)-3-hydroxy-6-methyltetrahydro-2H-pyran-4-yl)-1,3-dimethyl-3-phenylurea [Example C-2]”, the half-inhibitory concentration (IC50) (in general, the concentration that inhibits the measured activity by half) in assay [1] is 200 µM; in assay [3] it was 100 µM. In assay [2], the “IL-1β OS of LPS” value amounted to 100 µM.
Take “3-ethyl-1-((2S,3R,4S,6R)-2-(((2R,3S,4R,5R,8R,10R,11R,12S,13S,14R)-2-ethyl-3,4,10-trihydroxy-13-(((2R,4R,5S,6S)-5-hydroxy-4-methoxy-4,6-dimethyl-5-((4-methylpiperazin-1-yl)methyl)tetrahydro-2H-pyran-2-yl)oxy)-3,5,8,10,12,14-hexamethyl-15-oxo-1-oxa-6-azacyclopentadecan-11-yl)oxy)-3-hydroxy-6-methyltetrahydro-2H-pyran-4-yl)-1-methylurea [Example J-9]”: the 50% inhibitory concentration (IC50) in assay [1] and in assay [3] was > 500 µM throughout. The “IL-1β OS of LPS” value in assay [2] was >500 µM.
In the case of `CCCNC[C@]1(O)[C@H](C)O[C@@H](O[C@H]2[C@H](C)[C@@H](O[C@@H]3O[C@H](C)C[C@H](NCC(C)C)[C@H]3Oc3ccccc3)[C@](C)(O)C[C@@H](C)CN[C@H](C)[C@@H](O)[C@](C)(O)[C@@H](CC)OC(=O)[C@@H]2C)C[C@@]1(C)OC` [E-155], the concentration for half-maximal inhibition (IC50) in assay [1] and in assay [3] was 8 µM throughout. In addition, in assay [2], the “IL-1β OS of LPS” value stood at 6 µM.
Take `CC[C@H]1OC(=O)[C@H](C)[C@@H](O)[C@H](C)[C@@H](O[C@@H]2O[C@H](C)C[C@H](N(C)C(=O)Nc3ccncc3)[C@H]2O)[C@](C)(O)C[C@@H](C)CN[C@H](C)[C@@H](O)[C@]1(C)O` [Example A-5, 1-((2S,3R,4S,6R)-2-(((2R,3S,4R,5R,8R,10R,11R,12S,13S,14R)-2-ethyl-3,4,10,13-tetrahydroxy-3,5,8,10,12,14-hexamethyl-15-oxo-1-oxa-6-azacyclopentadecan-11-yl)oxy)-3-hydroxy-6-methyltetrahydro-2H-pyran-4-yl)-1-methyl-3-(pyridin-4-yl)urea]: the half-inhibitory concentration (IC50) in assay [1] (Bos taurus) and in assay [3] (Bos taurus) was > 250 µM each time. Further, the “IL-1β OS of LPS” value in assay [2] stood at 24 µM.
As for `CC[C@H]1OC(=O)[C@H](C)[C@@H](O)[C@H](C)[C@@H](O[C@@H]2O[C@H](C)C[C@H](N(C)C(=O)Nc3ccccc3OC)[C@H]2O)[C@](C)(O)C[C@@H](C)CN[C@H](C)[C@@H](O)[C@]1(C)O` [Example A-8, 1-((2S,3R,4S,6R)-2-(((2R,3S,4R,5R,8R,10R,11R,12S,13S,14R)-2-ethyl-3,4,10,13-tetrahydroxy-3,5,8,10,12,14-hexamethyl-15-oxo-1-oxa-6-azacyclopentadecan-11-yl)oxy)-3-hydroxy-6-methyltetrahydro-2H-pyran-4-yl)-3-(2-methoxyphenyl)-1-methylurea], the values for the IC50 in assay [1] (Bos taurus) and in assay [3] (Bos taurus) were > 250 µM and 16 µM, respectively. Moreover, the “IL-1β OS of LPS” value in assay [2] was 101 µM.
With `CC[C@H]1OC(=O)[C@H](C)[C@@H](O)[C@H](C)[C@@H](O[C@@H]2O[C@H](C)C[C@H](N(C)C(=O)Nc3ccccc3)[C@H]2O)[C@](C)(O)C[C@@H](C)CN[C@H](C)[C@@H](O)[C@]1(C)O` [Example A-13, 1-((2S,3R,4S,6R)-2-(((2R,3S,4R,5R,8R,10R,11R,12S,13S,14R)-2-ethyl-3,4,10,13-tetrahydroxy-3,5,8,10,12,14-hexamethyl-15-oxo-1-oxa-6-azacyclopentadecan-11-yl)oxy)-3-hydroxy-6-methyltetrahydro-2H-pyran-4-yl)-1-methyl-3-phenylurea], the IC50 in assay [1] (Bos taurus) was 200 µM; in assay [3] (Bos taurus) it was > 500 µM. Further, the “IL-1β OS of LPS” value in assay [2] is >500 µM.
Consider `CC[C@H]1OC(=O)[C@H](C)[C@@H](O[C@H]2C[C@@](C)(OC)[C@@](C)(O)[C@H](C)O2)[C@H](C)[C@@H](O[C@@H]2O[C@H](C)C[C@H](N(C)C(=O)N(C)c3ccccc3)[C@H]2O)[C@](C)(O)C[C@@H](C)CN[C@H](C)[C@@H](O)[C@]1(C)O` [Example B-1, 1-((2S,3R,4S,6R)-2-(((2R,3S,4R,5R,8R,10R,11R,12S,13S,14R)-2-ethyl-3,4,10-trihydroxy-13-(((2R,4R,5S,6S)-5-hydroxy-4-methoxy-4,5,6-trimethyltetrahydro-2H-pyran-2-yl)oxy)-3,5,8,10,12,14-hexamethyl-15-oxo-1-oxa-6-azacyclopentadecan-11-yl)oxy)-3-hydroxy-6-methyltetrahydro-2H-pyran-4-yl)-1,3-dimethyl-3-phenylurea], for which the IC50 worked out at 25 µM in assay [1] (Bos taurus) and 31 µM in assay [3] (Bos taurus). In addition, the “IL-1β OS of LPS” value in assay [2] was found to be 40 µM.
Consider `CCNC[C@]1(O)[C@H](C)O[C@@H](O[C@H]2[C@H](C)[C@@H](O[C@@H]3O[C@H](C)C[C@H](N(C)C(=O)N(C)c4ccccc4)[C@H]3O)[C@](C)(O)C[C@@H](C)CN[C@H](C)[C@@H](O)[C@](C)(O)[C@@H](CC)OC(=O)[C@@H]2C)C[C@@]1(C)OC` [Example H-23, 1-((2S,3R,4S,6R)-2-(((2R,3S,4R,5R,8R,10R,11R,12S,13S,14R)-2-ethyl-13-(((2R,4R,5S,6S)-5-((ethylamino)methyl)-5-hydroxy-4-methoxy-4,6-dimethyltetrahydro-2H-pyran-2-yl)oxy)-3,4,10-trihydroxy-3,5,8,10,12,14-hexamethyl-15-oxo-1-oxa-6-azacyclopentadecan-11-yl)oxy)-3-hydroxy-6-methyltetrahydro-2H-pyran-4-yl)-1,3-dimethyl-3-phenylurea], for which the “IL-1β OS of LPS” value in assay [2] came out at 100 µM. Besides, in assay [3] (Bos taurus), the concentration for half-maximal inhibition (IC50) was 193 µM.
As to `CC[C@H]1OC(=O)[C@H](C)[C@@H](O[C@H]2C[C@@](C)(OC)[C@](O)(CNCCN3CCOCC3)[C@H](C)O2)[C@H](C)[C@@H](O[C@@H]2O[C@H](C)C[C@H](N(C)C(=O)N(C)c3ccccc3)[C@H]2O)[C@](C)(O)C[C@@H](C)CN[C@H](C)[C@@H](O)[C@]1(C)O` [Example H-42, 1-((2S,3R,4S,6R)-2-(((2R,3S,4R,5R,8R,10R,11R,12S,13S,14R)-2-ethyl-3,4,10-trihydroxy-13-(((2R,4R,5S,6S)-5-hydroxy-4-methoxy-4,6-dimethyl-5-(((2-morpholinoethyl)amino)methyl)tetrahydro-2H-pyran-2-yl)oxy)-3,5,8,10,12,14-hexamethyl-15-oxo-1-oxa-6-azacyclopentadecan-11-yl)oxy)-3-hydroxy-6-methyltetrahydro-2H-pyran-4-yl)-1,3-dimethyl-3-phenylurea], the “IL-1β OS of LPS” value in assay [2] came to 100 µM. Further, the IC50 in assay [3] (Bos taurus) is 177 µM. In addition, in assay [4] (read-out: antibacterial / non-antibacterial (MIC for the BRD pathogens)), the MIC was > 64 µg/mL.
Consider `CC[C@H]1OC(=O)[C@H](C)[C@@H](O[C@H]2C[C@@](C)(OC)[C@](O)(CN3CCc4ccccc4C3)[C@H](C)O2)[C@H](C)[C@@H](O[C@@H]2O[C@H](C)C[C@H](N(C)C(=O)N(C)c3ccccc3)[C@H]2O)[C@](C)(O)C[C@@H](C)CN[C@H](C)[C@@H](O)[C@]1(C)O` [Example J-25, 1-((2S,3R,4S,6R)-2-(((2R,3S,4R,5R,8R,10R,11R,12S,13S,14R)-13-(((2R,4R,5S,6S)-5-((3,4-dihydroisoquinolin-2(1H)-yl)methyl)-5-hydroxy-4-methoxy-4,6-dimethyltetrahydro-2H-pyran-2-yl)oxy)-2-ethyl-3,4,10-trihydroxy-3,5,8,10,12,14-hexamethyl-15-oxo-1-oxa-6-azacyclopentadecan-11-yl)oxy)-3-hydroxy-6-methyltetrahydro-2H-pyran-4-yl)-1,3-dimethyl-3-phenylurea], for which, in assay [1] (Bos taurus), the IC50 was determined as 6 µM. Further, the “IL-1β OS of LPS” value in assay [2] was determined as 16 µM. In addition, the MIC in assay [4] (read-out: MIC ≤64 μg/mL for at least one of the bacterial strains (flag * at Ex #)) is < 64 µg/mL.
